Values quoted from earlier work, collected in PubChem BioAssay AID1259409 (Chemical Carcinogenesis Research Information System (CCRIS), 2018).

System: rodent chemically induced tumor inhibition, incidence and multiplicity
Assay: CCRIS tumor inhibitor studies
Details: Carcinogen: X-RAY, Dose [Inhibitor]: 0, Route [Inhibitor]: INTRAPERITONEAL, Species: MOUSE, Strain/Sex: C57BL/MALE AND FEMALE, Target Tissue: Type of Lesion: THYMUS GLAND: LYMPHOMA, Dose [Carcinogen]: 175 RADS 1/WK FOR 4 WK (250 KV X-RAYS, PHILLIPS RT 200/250), Promoter: NONE USED

Question: Which outcome (100 MG/KG 15 MIN PRIOR TO EACH IRRADIATION (STUDY DURATION: 14 MO)) does the source give for `C=C(NC(=O)Cc1ccccc1OC)C(=O)O` here?
Answer: 45%, 45%, 0%, not significant at 5 mo; 93%, >90%, <3%, not calculated

Question: What about the outcome (200 MG/KG 15 MIN PRIOR TO SECOND AND FOURTH IRRADIATION (STUDY DURATION 14 MO)) of the same molecule?
Answer: 45%, 0%, 100%, not calculated at 5 mo; 93%, 40%, 57%, not calculated at 8 mo

Question: And the outcome (400 MG/KG ONCE 15 MIN PRIOR TO FIRST IRRADIATION (STUDY DURATION: 14 MO))?
Answer: 45%, 10%, 78%, not calculated at 5 mo; 93%, >90%, <3%, not calculated at 8 mo
